In patent US20250082716A1, “REPRESSED ANG 1-7 IN COVID-19 IS INVERSELY ASSOCIATED WITH INFLAMMATION AND COAGULATION” (priority 2021, published 2025):
Where two headings read alike, the source gives them in different places.

System: SARS-CoV-2 South African variant
Format: in vivo, LVG Golden Syrian male hamsters

CCNC(=O)NS(=O)(=O)c1sc(CC(C)C)cc1-c1ccc(Cn2c(-c3ccccc3)nc(OC)c2C=O)cc1 [AVE0991, N-(Ethylcarbamoyl)-3-(4-((5-formyl-4-methoxy-2-phenyl-1H-imidazol-1-YL)methyl)phenyl)-5-isobutylthiophene-2-sulfonamide]
daily body weights expressed as the percentage of starting body weight (hamster, in vivo): continued to gain weight through the entire course of infection

Asp-Arg-Val-Tyr-Ile-His-Pro (DRVYIHP; printed: Asp-Arg-Val-Tyr-Ile-His-Pro) [angiotensin 1-7]
daily body weights expressed as the percentage of starting body weight (pump implant delivering angiotensin 1-7 at 12 mg/kg/day, started the day after inoculation with 500,000 PFU, n=3): continued to gain weight through the entire course of infection
